Assay results from patent publication US20040209238A1, “Cell division-visualized cell and method of production of the same, method of detection of fluorescence, method of evaluation of influence upon cell division, and method of screenig” (NAGASE & CO., LTD., priority 2002, published 2004).
Entries after “also recorded” stand apart in the source; their conditions may differ.

Tested on: human MDA435 cell (transformed with aurora A-GFP, histone H3-CFP, importin α-DsRed)
Experiment: real-time fluorescence observation of cell division in the cell division-visualized cell after addition of an agent
Assay type: cell-based
Details: vinblastine added to the culture fluid
Method: As a cell to which the aforementioned plasmid DNA is introduced, human MDA435 cell (Vig et al., 1996; Sugimoto et al., 2000, 2001) was used. The human MDA435 cell was cultured in D-MEM medium containing 10% FCS (manufactured by Nissui Pharmaceutical Co., Ltd.) at 37° C. under 5% carbon dioxide in the air. Cells in the logarithmic growth phase were washed with 4 ml of 1×PBS (−), and the cells were detached by adding 1 ml of trypsin. After terminating the action of trypsin by adding 4 ml of D-MEM medium, the cell suspension was transferred into a centrifuge tube, and a part thereof was removed to subject to the measurement of cell number using a hematometer. The remaining part was centrifuged at 1000 rpm for 10 minutes, and thus recovered cells were washed by suspending in 12 ml of 1×PBS (−). This operation was repeated twice, and the cells were suspended in 1×K-PBS to give the cell density of 1.2×10^7 cells/ml.
The transformed cells described above were cultured in a wet chamber with controlled carbon dioxide concentration and temperature by a thermostat and a control timer of carbon dioxide introduction (Japan, manufactured by Kokensya Engineering), using a 35 mm dish (with a cover glass attached on the bottom: manufactured by ASAHI TECHNO GLASS CORPORATION) on the stage of a inverted fluorescence microscope “Eclipse TE300” (manufactured by Nikon) equipped with a objective lens “PlanApo 60×”. Then, a highly sensitive CCD camera ORCA-ER (manufactured by Hamamatsu Photonics K.K.), and an excitation/absorption filter wheel equipped with a filter set for CFP/YFP/RFP for the observation (No. 86006, manufactured by Chroma Technology Corp.) and aZ-axis motor, and a controller “BioPoint MAC5000” (manufactured by Ludl Electronic Products Ltd.) which is a control equipment of the same were used, with the use of a computer software (LuminaVision version 1.40, manufactured by Mitani Co., Ltd.) for controlling these accessories. […]

`CC[C@]1(O)C[C@@H]2CN(CCc3c([nH]c4ccccc34)[C@@](C(=O)OC)(c3cc4c(cc3OC)N(C)[C@H]3[C@@](O)(C(=O)OC)[C@H](OC(C)=O)[C@]5(CC)C=CCN6CC[C@]43[C@@H]65)C2)C1` [vinblastine] was tested, and the “alignment of the chromosomes on the equatorial plane (transition to the metaphase)” value (cyan fluorescence (histone H3), up to 130 minutes following initiation of the observation, FIG. 2 and FIG. 3) was “not found even after lapse of 130 minutes; also recorded: not observed even after lapse of 130 minutes”, the “movement of the centrosomes toward the poles and formation of the spindle” value (green fluorescence (aurora A), FIG. 2) was “inhibition was made on the movement of the centrosomes toward the poles” and the “progress of cell division, transition from the prophase to the prometaphase” value (observed at intervals of 2 minutes, FIG. 2 and FIG. 3) was “inhibition of the transition from the prophase to the prometaphase”.
